Data published in US7615551B2, “Salicylate and gentisate salts of a piperazine compound” (Solvay Pharmaceuticals, B.V., priority 2005, dated 2009).

Columns and labels:
[1] = in vivo; cited from earlier work
catalepsy = settings: rodents; cited from earlier work
5HT reuptake = 5HT reuptake (Homo sapiens, UniProt P31645); settings: in therapeutic models; cited from earlier work
D2 receptors = D2 receptors (Homo sapiens, UniProt P14416); settings: cited from earlier work
Water solubility = format: physicochemical; settings: excess solid salt in water, equilibrated at least 24 hours, filtered, HPLC-UV; resulting pH 5.8
Protocol: Water solubility was determined by combining an excess amount of solid salt with ˜2 mL D1 water in a 4 mL glass screw-cap vial and equilibrating for at least 24 hours on an end-over-end rotator. The resulting suspensions were filtered through a 0.22 μm PVDF filter and assayed by high pressure liquid chromatography with quantitation by UV against standards of compound 1.

Sequence of D2 receptors (P14416 whole entry): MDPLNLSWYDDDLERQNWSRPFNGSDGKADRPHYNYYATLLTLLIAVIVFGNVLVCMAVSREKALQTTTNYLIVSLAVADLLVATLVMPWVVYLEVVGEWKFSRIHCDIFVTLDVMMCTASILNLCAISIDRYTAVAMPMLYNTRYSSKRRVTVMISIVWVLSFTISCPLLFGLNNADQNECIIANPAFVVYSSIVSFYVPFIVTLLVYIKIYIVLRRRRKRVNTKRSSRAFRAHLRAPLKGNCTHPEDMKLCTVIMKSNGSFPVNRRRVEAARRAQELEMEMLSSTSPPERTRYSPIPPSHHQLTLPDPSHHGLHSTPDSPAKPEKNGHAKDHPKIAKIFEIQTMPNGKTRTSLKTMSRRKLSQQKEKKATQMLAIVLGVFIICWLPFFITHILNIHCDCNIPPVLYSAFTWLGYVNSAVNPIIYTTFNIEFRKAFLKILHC
Sequence of 5HT reuptake (P31645 whole entry): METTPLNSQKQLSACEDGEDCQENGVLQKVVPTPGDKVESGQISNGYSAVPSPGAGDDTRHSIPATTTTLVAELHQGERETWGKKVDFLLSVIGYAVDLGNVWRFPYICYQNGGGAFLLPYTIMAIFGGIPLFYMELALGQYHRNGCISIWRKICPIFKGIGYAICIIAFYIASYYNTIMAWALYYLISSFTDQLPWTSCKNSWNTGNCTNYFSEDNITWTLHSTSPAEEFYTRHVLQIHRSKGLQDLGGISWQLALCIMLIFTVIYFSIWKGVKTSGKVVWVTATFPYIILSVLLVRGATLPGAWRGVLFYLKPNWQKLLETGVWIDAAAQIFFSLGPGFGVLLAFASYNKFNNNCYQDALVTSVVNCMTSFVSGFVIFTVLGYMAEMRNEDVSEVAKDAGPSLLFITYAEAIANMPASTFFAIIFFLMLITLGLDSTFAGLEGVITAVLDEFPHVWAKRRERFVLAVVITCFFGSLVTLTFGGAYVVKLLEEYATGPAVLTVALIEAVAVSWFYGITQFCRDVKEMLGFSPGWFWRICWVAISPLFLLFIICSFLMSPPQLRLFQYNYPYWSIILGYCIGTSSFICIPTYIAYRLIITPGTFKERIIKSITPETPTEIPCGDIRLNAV

SMILES | activity in therapeutic models sensitive to antipsychotics, antidepressants, anxiolytics, Parkinson's disease [1] | propensity to induce catalepsy (catalepsy) | activity against 5HT reuptake (5HT reuptake) | activity at D2 receptors (D2 receptors) | water solubility (Water solubility)
CC1Oc2c(cccc2N2CCN(CCCc3c[nH]c4ccc(F)cc34)CC2)NC1=O (stereo not drawn) [compound 1, 8-{4-[3-(5-fluoro-1H-indol-3-yl)-propyl]-piperazin-1-yl}-2-methyl-4H-benzo[1,4]oxazin-3-one] | active | low propensity to induce catalepsy | inhibitory activity | antagonistic activity | –
CC1Oc2c(cccc2N2CCN(CCCc3c[nH]c4ccc(F)cc34)CC2)NC1=O (stereo not drawn) [compound 2] | – | – | – | – | 1600 µg/mL (freebase equivalent)
CC1Oc2c(cccc2N2CCN(CCCc3c[nH]c4ccc(F)cc34)CC2)NC1=O (stereo not drawn) [compound 3] | – | – | – | – | 500 µg/mL (freebase equivalent)
